Results on three molecules are retold here after US20140080162A1, “FLUORESCENCE LIFETIME EPIGENETICS ASSAYS” (ALMAC SCIENCES (SCOTLAND) LIMITED, priority 2011, published 2014).

Read-outs that look alike come from different tables or passages of the source.

The target of test [1] is T1, JHDM1A (Homo sapiens, UniProt Q9Y2K7).
T1 construct: purchased BPS BioScience (via AMSBio, UK)
T1 sequence (Q9Y2K7 1-1162): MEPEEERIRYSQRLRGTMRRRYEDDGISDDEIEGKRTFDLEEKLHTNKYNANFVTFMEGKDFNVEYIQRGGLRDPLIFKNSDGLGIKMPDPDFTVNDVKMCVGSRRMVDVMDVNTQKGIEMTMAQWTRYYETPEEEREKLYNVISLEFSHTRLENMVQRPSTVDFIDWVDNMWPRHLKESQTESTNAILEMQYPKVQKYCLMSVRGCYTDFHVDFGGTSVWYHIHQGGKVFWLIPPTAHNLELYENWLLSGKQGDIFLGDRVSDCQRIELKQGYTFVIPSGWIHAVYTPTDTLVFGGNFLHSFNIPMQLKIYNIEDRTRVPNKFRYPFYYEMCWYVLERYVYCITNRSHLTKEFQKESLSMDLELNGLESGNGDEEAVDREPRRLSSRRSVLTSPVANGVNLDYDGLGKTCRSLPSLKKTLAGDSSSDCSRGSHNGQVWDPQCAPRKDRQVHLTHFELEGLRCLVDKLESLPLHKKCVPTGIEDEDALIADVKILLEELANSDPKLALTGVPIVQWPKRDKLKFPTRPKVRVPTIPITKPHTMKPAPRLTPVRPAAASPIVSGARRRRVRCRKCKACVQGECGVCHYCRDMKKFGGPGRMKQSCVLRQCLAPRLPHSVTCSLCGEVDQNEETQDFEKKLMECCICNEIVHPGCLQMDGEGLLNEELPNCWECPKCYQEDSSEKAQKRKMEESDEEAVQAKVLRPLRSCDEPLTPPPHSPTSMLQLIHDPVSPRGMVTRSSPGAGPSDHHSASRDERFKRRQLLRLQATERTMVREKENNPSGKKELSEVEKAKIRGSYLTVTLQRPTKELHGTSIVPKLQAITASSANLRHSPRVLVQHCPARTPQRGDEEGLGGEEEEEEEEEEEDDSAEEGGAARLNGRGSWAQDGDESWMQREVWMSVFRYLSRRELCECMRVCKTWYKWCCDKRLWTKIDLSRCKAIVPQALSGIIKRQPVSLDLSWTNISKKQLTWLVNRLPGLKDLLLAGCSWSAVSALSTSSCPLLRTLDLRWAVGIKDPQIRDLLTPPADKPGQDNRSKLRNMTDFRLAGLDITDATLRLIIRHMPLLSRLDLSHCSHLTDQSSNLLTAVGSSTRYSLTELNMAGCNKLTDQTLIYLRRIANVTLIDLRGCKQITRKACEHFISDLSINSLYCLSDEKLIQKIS
The test is described as follows: JHDM1A FLT protease protection assay. Type of test: biochemical. Conditions: peptide 10 1 μM, JHDM1A 150 nM, 5 h; Endo-LysC up to 120 min. The procedure: The assay was performed in a 20 μl volume in a 384-well black microplate and contained peptide 10 (1 μM) and JHDM1A enzyme (150 nM) in assay buffer (50 mM Tris, pH 7.4, 100 μM sodium ascorbate, 10 μM ammonium ferrous sulfate, 100 μM α-ketoglutarate, 0.01% Tween-20). Control wells containing peptide only were also included. After 5 h incubation at room temperature, 10 μl of Endo-LysC (30 nM) was added to the wells and the plate incubated at room temperature for up to 120 min. FLTs were then measured in triplicate on a NanoTaurus plate reader.
Assays were performed in a 384-well microplate at room temperature with an assay volume of 20 μl per well. To wells containing recombinant JHDM1A enzyme in assay buffer (10 μl) was added peptide 10 in assay buffer (10 μl). Two sets of control wells containing peptide 10 only were included. The plate was shaken and then sealed with a coverslip. The final concentration of JHDM1A in the assay was 150 nM and 1 μM for peptide 10. After incubation at room temperature for 5 h, Endo-LysC (10 μl in assay buffer; final concentration 10 nM) was added to assay wells and one set of control wells. To the other set of control wells was added 10 μl of assay buffer. Following incubation at room temperature for 120 min, the microplate was centrifuged at 500 rpm for 1 min and FLTs measured. All measurements were performed in triplicate.

The target of test [2] is T2, PCAF (Homo sapiens, UniProt Q92831).
T2 construct: purchased Enzo Life Sciences
T2 sequence (Q92831 whole entry): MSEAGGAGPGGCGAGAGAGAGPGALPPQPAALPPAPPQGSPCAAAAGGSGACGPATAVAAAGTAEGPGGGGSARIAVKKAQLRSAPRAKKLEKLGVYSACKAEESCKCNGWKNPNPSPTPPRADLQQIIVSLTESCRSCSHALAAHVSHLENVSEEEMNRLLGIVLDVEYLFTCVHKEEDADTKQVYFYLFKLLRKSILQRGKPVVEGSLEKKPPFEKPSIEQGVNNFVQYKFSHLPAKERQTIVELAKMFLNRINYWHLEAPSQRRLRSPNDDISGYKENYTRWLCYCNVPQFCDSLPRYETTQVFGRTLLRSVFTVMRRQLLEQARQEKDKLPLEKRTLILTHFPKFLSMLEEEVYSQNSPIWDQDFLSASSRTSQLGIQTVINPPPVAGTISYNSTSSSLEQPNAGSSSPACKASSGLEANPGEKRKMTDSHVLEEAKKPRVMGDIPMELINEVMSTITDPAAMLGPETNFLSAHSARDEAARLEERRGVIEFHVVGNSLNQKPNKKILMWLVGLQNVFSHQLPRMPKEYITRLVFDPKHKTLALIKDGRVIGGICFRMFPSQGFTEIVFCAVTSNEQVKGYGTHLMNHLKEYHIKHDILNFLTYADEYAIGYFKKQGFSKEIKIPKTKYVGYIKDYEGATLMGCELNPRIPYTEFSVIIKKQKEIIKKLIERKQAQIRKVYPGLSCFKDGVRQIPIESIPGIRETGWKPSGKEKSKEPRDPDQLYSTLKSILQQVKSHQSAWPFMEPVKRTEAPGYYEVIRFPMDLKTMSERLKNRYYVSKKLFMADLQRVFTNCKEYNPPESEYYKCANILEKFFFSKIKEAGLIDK
Nature of the test: PCAF FLT protease protection assay. Type of test: biochemical. The note with it: peptide 17 (1 μM), 125 nM PCAF, 2 h; read-out: KM (app) for AcCoA. The procedure:
The dependence of the PCAF assay on AcCoA concentration was investigated. The assay was performed in a 384-well microplate at room temperature for 2 h in assay buffer (20 μl) using 125 nM PCAF and 1 μM peptide 17. Concentrations of AcCoA were varied from 25 μM-0.02 μM.
For AcCoA titrations, to wells containing varying concentrations of AcCoA (5 μl in assay buffer) was added 5 μl of peptide 17 in assay buffer followed by 10 μl of PCAF in assay buffer. […] Following a further 90 min incubation at room temperature, FLTs were measured. All measurements were performed in triplicate.

Test [3] deals with T2, PCAF. Conditions: literature (Poux et al. 2002); read-out: reported KM for AcCoA; cited from earlier work.
Test [4] has as its target T3, EZH2/EED/SUZ12/RbAp48/AEBP2 complex (Homo sapiens, UniProt Q15910). Conditions: read-out: KM for SAM, literature value; literature (Sneeringer et al. 2010), radiometric assay format; cited from earlier work.
The target in test [5] is T4, Set7/9 (Homo sapiens, UniProt Q8WTS6).
T4 construct: purchased BPS BioScience (via AMSBio, UK)
T4 sequence (Q8WTS6 1-366): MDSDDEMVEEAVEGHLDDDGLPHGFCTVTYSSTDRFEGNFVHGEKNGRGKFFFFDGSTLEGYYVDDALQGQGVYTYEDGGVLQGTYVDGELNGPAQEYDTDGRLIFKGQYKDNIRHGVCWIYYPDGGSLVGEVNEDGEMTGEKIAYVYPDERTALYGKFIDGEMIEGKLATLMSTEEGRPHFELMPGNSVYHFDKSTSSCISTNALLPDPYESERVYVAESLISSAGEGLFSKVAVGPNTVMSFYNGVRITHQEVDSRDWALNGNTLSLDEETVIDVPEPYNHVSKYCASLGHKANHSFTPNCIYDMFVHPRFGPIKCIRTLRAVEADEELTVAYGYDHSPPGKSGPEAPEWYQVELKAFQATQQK
Nature of the test: Set7/9 FLT protease protection assay. Type of test: biochemical. The note with it: peptide 13 as substrate (1 μM), 25 nM Set7/9, 2 h; read-out: Km (app) for SAM.
Protocol: The assay was performed at room temperature and samples taken after 0 h, 2 h, and 6 h time intervals respectively.
10 μl of Endo-LysC (final concentration 2 nM) was added to each well and the plate incubated at room temperature for 15 mins before the FLTs were measured using a NanoTaurus plate reader. Peptide only controls were included at the same concentration for comparison.
Assays were performed in a 20 μl volume in a 384-well black microplate and contained peptide 12 (1 μM) and Set7/9 enzyme (100 nM, 50 nM, 25 nM, or 12.5 nM) in assay buffer. Reactions were stopped at regular intervals by the addition of 10 μl Endo-LysC (final concentration 2 nM). FLTs were measured following 15 min incubation with Endo-LysC at room temperature. All measurements were performed in duplicate using a NanoTaurus plate reader.
The dependence of the Set7/9 assay on SAM co-factor was investigated using peptide 13 as the substrate. The assay was performed in a 384-well microplate at room temperature for 2 h in assay buffer (20 μl) using 25 nM Set7/9 and 1 μM substrate. SAM concentrations were varied from 100 μM-1.7 nM. On completion, Endo-LysC (2 nM) was added to each well and FLTs measured following a 20 min incubation period.
(§1) Reactions were performed in a 384-well microplate at room temperature for 2 h and stopped by the addition of Endo-LysC (2 nM).
Alternatively, assays were performed in a 384-well microplate at room temperature with an assay volume of 20 μl per well. To wells containing recombinant Set7/9 enzyme and peptide 12 or 13 in assay buffer (10 μl) was added SAM (10 μl) in assay buffer. Controls containing peptide only were also included. The plate was shaken and then sealed with a coverslip. The final concentration of Set7/9 in the assay varied between 100 nM and 12.5 nM whilst the concentration of peptide and SAM were kept constant at 1 μM and 100 μM respectively. Assays were started at different times and stopped together after 120 min by the addition of Endo-LysC (10 μl in assay buffer; final concentration 2 nM). Following incubation at room temperature for 15 min, the microplate was centrifuged at 500 rpm for 1 min and FLTs measured. All measurements were performed in duplicate.
For inhibitor titrations, compounds (5 μl) were preincubated with Set7/9 and peptide 13 (5 μl) for 10 min at room temperature prior to addition of SAM (10 μl). Controls containing no SAM or no inhibitor were included.

Test [6] addresses T5, G9a (Homo sapiens, UniProt Q96KQ7).
T5 construct: purchased Millipore; Abcam; BPS Bioscience (via AMSBio)
T5 sequence (Q96KQ7 1-1210): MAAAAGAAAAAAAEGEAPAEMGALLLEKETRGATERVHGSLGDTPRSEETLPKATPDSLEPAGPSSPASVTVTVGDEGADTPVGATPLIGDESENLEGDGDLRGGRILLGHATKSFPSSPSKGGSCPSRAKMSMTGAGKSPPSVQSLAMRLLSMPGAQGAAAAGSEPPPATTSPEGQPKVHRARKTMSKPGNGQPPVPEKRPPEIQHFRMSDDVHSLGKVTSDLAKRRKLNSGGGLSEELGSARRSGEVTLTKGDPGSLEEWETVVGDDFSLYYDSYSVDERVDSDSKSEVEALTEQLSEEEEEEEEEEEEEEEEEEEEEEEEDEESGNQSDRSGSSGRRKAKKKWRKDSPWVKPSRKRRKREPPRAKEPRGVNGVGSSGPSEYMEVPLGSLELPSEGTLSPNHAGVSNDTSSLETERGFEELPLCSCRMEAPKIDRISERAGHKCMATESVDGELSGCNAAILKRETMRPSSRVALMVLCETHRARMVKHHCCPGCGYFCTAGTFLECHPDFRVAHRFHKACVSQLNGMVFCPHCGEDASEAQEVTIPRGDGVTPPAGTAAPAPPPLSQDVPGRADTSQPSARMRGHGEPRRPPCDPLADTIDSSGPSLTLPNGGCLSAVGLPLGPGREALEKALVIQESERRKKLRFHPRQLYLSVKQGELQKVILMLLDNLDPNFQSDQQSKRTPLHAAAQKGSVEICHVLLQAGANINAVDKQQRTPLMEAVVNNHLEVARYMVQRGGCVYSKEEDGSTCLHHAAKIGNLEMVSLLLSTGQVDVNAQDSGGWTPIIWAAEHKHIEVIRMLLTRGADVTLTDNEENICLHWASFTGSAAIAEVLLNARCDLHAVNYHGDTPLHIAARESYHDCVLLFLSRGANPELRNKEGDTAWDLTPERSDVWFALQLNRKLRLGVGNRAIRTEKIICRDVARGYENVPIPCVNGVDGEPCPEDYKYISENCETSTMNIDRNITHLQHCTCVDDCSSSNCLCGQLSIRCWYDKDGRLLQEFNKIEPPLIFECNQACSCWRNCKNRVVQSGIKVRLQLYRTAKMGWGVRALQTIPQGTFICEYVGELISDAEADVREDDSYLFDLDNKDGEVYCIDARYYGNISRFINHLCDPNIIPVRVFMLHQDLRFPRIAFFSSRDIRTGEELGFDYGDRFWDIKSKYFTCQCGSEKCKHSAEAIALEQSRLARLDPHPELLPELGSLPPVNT
The test is described as follows: G9a FLT protease protection assay. The note with it: peptides 4 and 9 as substrates (1 μM), 25 nM or 10 nM G9a, 2 h room temperature; read-out: Km (app) for SAM. Type of test: biochemical.
Protocol: Assays were performed at room temperature for 2 h and then FLTs measured using a NanoTaurus plate reader (Edinburgh Instruments Ltd.). Each well was then treated with 2 nM protease (Endo-LysC) (10 μl) and the plate incubated at room temperature for 60 min. The FLTs were then re-measured. Controls were included containing no G9a or no protease.
Peptides 4 and 9 were incubated with SAM (100 μM) and varying concentrations of G9a (Abcam) in 20 μl of assay buffer in a 384-well black microplate (Greiner). The assays were performed at room temperature for 2 h after which FLTs were measured as previously described. 2 nM Endo-LysC (10 μl per well) was then added and FLTs re-measured following 10 min and 60 min incubation with the protease.
The dependence of the G9a assay on SAM was investigated using both peptide 4 and 9 as substrates. Assays were performed in a 384-well microplate in assay buffer (20 μl) using either 25 nM or 10 nM G9a and 1 μM substrate. SAM concentrations were varied from 200 μM-0.4 μM and assays were incubated for 2 h at room temperature. On completion, Endo-LysC (2 nM) was added to each well and FLTs measured following a 10 min incubation period.
as §1
Alternatively, assays were performed in a 384-well microplate at room temperature with an assay volume of 20 μl per well. To wells containing recombinant G9a enzyme in assay buffer (5 μl) was added peptide in assay buffer (10 μl). Reactions were started by the addition of SAM (5 μl). The plate was shaken and then sealed with a coverslip. […] The concentration of peptide was kept constant at 1 μM. Assays were started at different times and stopped together after 2 h by the addition of Endo-LysC (10 μl in assay buffer; final concentration 2 nM). Following incubation at room temperature for 10 min, the microplate was centrifuged at 500 rpm for 1 min and FLTs measured.
For inhibitor titrations, compounds (5 μl) were preincubated with G9a (5 μl) for 30 min at room temperature prior to addition of peptide (5 μl) and SAM (5 μl). Controls containing no SAM or no inhibitor were included.

The target in test [7] is T3, EZH2/EED/SUZ12/RbAp48/AEBP2 complex. The note with it: read-out: KM (app) for SAM; peptide 20 (1 μM), 100 ng/well EZH2 complex, 5 h.
Protocol: The dependence of the EZH2 assay on SAM co-factor was investigated using peptide 20 as the substrate. The assay was performed in a 384-well hi-base microplate at room temperature for 5 h in assay buffer (10 μl) using 100 ng/well EZH2 complex and 1 μM substrate. SAM concentrations were varied from 100 μM-0.05 μM. On completion, Endo-LysC (4 nM) was added to each well and FLTs measured following a 15 min incubation period. The data was fitted to a variable slope dose-response model in Graph Pad Prism to determine the KM (app) for SAM.
For SAM titrations, to wells containing varying concentrations of SAM in assay buffer (2.5 μl) was added EZH2 complex in assay buffer (2.5 μl). Reactions were initiated by the addition of peptide 20 in assay buffer (5 μl). The plate was incubated at room temperature for 5 h and then 10 μl of Endo-LysC in assay buffer was added to each well. Following a further 15 min incubation at room temperature, FLTs were measured. All measurements were performed in triplicate.

As a reminder, the Km is the concentration of substrate that gives half-maximal velocity.

T3 sequence (Q15910 whole entry): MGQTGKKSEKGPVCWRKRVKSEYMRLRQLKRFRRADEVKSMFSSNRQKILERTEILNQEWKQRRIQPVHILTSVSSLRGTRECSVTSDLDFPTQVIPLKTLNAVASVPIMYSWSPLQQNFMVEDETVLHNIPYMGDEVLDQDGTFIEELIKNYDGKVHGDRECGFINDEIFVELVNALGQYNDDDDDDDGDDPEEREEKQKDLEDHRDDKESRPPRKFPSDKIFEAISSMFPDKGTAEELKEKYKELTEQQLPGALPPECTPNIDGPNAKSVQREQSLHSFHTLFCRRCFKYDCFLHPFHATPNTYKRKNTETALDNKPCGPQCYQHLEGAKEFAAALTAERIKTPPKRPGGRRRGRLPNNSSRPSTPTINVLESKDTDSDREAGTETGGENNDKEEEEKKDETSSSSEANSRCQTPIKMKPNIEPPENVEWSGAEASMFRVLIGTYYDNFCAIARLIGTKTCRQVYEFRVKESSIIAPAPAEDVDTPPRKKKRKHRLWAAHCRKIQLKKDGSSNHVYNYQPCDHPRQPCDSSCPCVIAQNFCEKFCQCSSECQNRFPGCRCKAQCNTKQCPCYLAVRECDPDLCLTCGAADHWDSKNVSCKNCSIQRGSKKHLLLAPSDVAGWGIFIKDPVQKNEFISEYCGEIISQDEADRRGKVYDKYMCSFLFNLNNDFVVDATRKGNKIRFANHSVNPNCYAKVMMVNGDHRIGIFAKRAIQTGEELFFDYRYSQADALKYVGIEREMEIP
T3 sequence (O75530 whole entry partner): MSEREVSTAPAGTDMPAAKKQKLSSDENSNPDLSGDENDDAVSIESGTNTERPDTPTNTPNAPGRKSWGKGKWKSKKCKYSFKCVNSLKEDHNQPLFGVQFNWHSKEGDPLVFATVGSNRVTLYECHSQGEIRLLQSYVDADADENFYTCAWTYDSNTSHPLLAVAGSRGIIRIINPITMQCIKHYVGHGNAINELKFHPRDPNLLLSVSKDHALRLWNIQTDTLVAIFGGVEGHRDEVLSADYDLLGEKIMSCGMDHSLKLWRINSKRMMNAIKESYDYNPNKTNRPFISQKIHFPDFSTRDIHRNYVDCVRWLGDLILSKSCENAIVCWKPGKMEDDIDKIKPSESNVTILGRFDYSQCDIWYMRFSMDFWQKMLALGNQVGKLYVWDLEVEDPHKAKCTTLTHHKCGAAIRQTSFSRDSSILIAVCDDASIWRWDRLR
T3 sequence (Q15022 whole entry partner): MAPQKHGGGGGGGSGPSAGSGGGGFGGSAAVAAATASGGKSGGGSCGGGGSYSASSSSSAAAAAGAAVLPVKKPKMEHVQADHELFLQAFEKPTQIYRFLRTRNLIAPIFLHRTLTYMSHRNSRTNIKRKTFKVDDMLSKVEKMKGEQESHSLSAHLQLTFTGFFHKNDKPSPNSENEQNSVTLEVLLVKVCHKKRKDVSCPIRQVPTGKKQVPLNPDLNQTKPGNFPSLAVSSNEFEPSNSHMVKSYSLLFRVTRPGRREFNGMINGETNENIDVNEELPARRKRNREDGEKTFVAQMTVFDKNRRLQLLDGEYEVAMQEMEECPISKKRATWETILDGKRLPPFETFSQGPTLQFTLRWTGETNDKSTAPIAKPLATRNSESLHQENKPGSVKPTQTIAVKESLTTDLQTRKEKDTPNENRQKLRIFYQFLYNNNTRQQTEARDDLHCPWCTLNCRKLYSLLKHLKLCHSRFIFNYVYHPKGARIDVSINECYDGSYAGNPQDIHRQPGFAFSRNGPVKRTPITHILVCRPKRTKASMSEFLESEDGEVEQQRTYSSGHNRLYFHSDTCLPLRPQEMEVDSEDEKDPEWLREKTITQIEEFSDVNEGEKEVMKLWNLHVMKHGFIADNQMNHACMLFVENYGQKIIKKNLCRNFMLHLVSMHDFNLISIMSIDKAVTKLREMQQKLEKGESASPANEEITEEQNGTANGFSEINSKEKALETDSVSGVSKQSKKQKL
T3 sequence (Q09028 whole entry partner): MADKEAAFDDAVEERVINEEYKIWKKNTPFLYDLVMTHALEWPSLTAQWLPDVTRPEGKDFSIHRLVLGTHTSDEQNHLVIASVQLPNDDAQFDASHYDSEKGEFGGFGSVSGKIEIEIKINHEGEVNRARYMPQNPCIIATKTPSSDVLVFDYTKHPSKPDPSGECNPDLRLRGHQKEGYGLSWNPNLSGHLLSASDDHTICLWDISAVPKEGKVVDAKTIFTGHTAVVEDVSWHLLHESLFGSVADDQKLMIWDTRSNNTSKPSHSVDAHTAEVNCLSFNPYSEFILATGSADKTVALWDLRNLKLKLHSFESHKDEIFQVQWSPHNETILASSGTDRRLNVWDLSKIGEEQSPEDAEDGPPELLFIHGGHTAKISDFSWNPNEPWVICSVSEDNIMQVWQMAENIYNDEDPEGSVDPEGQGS
T3 sequence (Q6ZN18 whole entry partner): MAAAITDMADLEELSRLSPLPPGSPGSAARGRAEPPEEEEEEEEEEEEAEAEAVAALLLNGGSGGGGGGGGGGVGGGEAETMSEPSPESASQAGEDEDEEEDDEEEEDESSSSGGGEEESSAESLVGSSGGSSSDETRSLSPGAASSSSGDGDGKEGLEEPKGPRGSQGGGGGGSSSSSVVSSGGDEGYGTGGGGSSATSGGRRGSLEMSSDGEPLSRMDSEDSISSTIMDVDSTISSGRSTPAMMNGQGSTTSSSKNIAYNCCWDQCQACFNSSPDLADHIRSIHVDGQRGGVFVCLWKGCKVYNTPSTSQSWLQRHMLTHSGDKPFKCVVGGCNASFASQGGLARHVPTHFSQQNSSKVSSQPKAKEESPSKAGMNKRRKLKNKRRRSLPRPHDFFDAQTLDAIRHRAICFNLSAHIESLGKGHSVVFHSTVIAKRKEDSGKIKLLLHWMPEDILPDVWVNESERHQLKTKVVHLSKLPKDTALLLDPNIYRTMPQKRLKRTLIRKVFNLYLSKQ

As to “9AA-ATGGVK^36(Me)K(Me)PHRYW-CONH2 [peptide 10]”, the “increase in FLT following protease treatment after reaction with JHDM1A” value in test [1] is on record as “over 1 ns”.

Take `CC(=O)SCCNC(=O)CCNC(=O)[C@H](O)C(C)(C)COP(=O)(O)OP(=O)(O)OC[C@H]1O[C@@H](n2cnc3c(N)ncnc32)[C@H](O)[C@@H]1OP(=O)(O)O` [AcCoA, acetyl co-enzyme A]: the Km is 1.2 µM in test [2] and 1.6 µM in test [3].

Take `C[S+](CC[C@H](N)C(=O)[O-])C[C@H]1O[C@@H](n2cnc3c(N)ncnc32)[C@H](O)[C@@H]1O` (stereo partly shown) [SAM, S-adenosylmethionine, reference compound]: the Michaelis-Menten constant (Km) was 0.21 to 0.3 µM in test [4], 0.5 µM in test [5], 3 to 11 µM in test [6] and 0.71 µM in test [7].
